This note sets out measurements from US20240342143A1, “APPLICATION OF ALKALOID COMPOUND HIP IN TREATMENT OF CARDIAC TRAUMA” (HUZHOU COLLEGE, priority 2022, published 2024).

What all share (assay type): cell-based
For data set [1], the system named is Cleaved-Caspase-3. Nature of the data set: Western blot of Cleaved-Caspase-3 expression in DOX-induced H9c2 cardiomyocytes. To be noted: FIG. 3. The protocol:
(§1) (2) From H9c2 cardiomyocytes which were treated with different tested seabuckthorn alkaloids for 1 h and then treated with 2.5 μM DOX for 24 h, proteins were extract. That is, the H9c2 cardiomyocytes were lysed and scraped, and the cell lysate were collected and centrifuged at 12,000 g for 15 min to collect the supernatant and discard the precipitate. The supernatant was stored at […], and quantified for proteins using the BCA method for later use. SDS-PAGE electrophoresis was performed by using 5% stacking gel (Step1: 80V, 30 min; Step2: 120V, 180 min). The membrane transfer was performed using a PVDF membrane for 30 min at 80 mA. Blocking and hybridization was performed by blocking in 5% nonfat milk powder for 1 h, incubating with a primary antibody overnight and incubating with a secondary antibody at room temperature for 1-2 h with gentle shaking. Development was performed by ECL reagent development. Expression levels of intracellular Caspase-3 and p-JNK/JNK proteins were observed using a gel imaging system.

For data set [2], the system named is p-JNK. The experiment in a line: Western blot of p-JNK/JNK expression in DOX-induced H9c2 cardiomyocytes. To be noted: FIG. 4; for expression level of p-JNK vs DOX model group: 1 h, then 2.5 μM DOX 24 h. The procedure:
as §1
(A western blot detects proteins with antibodies after separation by electrophoresis.)

For data set [3], the system named is DOX-induced H9c2 cardiomyocytes. The experiment in a line: Effect of Hip on DOX-induced H9c2 cardiomyocyte toxicity (MTT colorimetric method). To be noted: 1 h pre-incubation, then 2.5 μM DOX 24 h, FIG. 2. The procedure:
(1) H9c2 cells were pre-incubated with the alkaloid compound Hip for 1 h, and then added with 2.5 μM doxorubicin (DOX) for 24 h. The effect of the alkaloid compound Hip for DOX-induced cardiomyocyte apoptosis activity was screened by using the MTT colorimetric method. The optimal concentration range for action was determined.
A general note: Tetrazolium assays rely on reduction of a dye to a coloured formazan, in cell work by metabolically active cells.

The subject of data set [4] is H9c2 cardiomyocytes. Nature of the data set: Toxicity effect of Hip on H9c2 cardiomyocytes (MTT colorimetric method). As to conditions: 24 h, FIG. 1. The protocol:
H9c2 cells were incubated with the alkaloid compound Hip at different concentrations (0.1μ, 1μ, 5μ, 10μ, 20μ, 40μ, 80μ, 160 μM) of for 24 h. The toxicity effect of the alkaloid compound on cardiomyocytes was evaluated by using the MTT colorimetric method.

[5] abbreviates: 2.5 μM DOX 24 h, DOX model group.

Regarding `COc1cccc2c1C(=O)c1c(O)c3c(c(O)c1C2=O)C[C@@](O)(C(=O)CO)C[C@@H]3O[C@H]1C[C@H](N)[C@H](O)[C@H](C)O1` [DOX, doxorubicin, reference compound], the “expression level of Cleaved-Caspase-3 vs Con group” value in data set [1] (setting [5]) was “can significantly increase the expression level of Cleaved-Caspase-3”. In addition, the “expression level of p-JNK vs Con group” value in data set [2] (setting [5]) is given as “can significantly increase the expression level of p-JNK”.
On to `O=C1CC[C@H]2c3[nH]c4ccc(O)cc4c3CCN12` [Hip, Hippophamide], for which the “expression level of Cleaved-Caspase-3 vs DOX model group” value in data set [1] (Hip 10 μM, 20 μM and 40 μM, 1 h, then 2.5 μM DOX 24 h) is given as “can decrease the increased level of Cleaved-Caspase-3 caused by DOX to varying degree”. Moreover, the entries for the “expression level of p-JNK vs DOX model group” value in data set [2] (Hip high-dose group 40 μM), in data set [2] (Hip low-dose group 10 μM) and in data set [2] (Hip middle-dose group 20 μM) were “extremely significant differences”, “no statistical difference” and “extremely significant differences”, respectively. Moreover, in data set [3] (Hip 5-80 μM), the “difference from DOX model group in DOX-induced myocardial cytotoxicity” value is recorded as “significantly or extremely significant different”. Besides, the “inhibition of DOX-induced myocardial cytotoxicity vs DOX model group” value in data set [3] (different Hip concentrations) is “can inhibit DOX-induced myocardial cytotoxicity”. Moreover, the “viability of H9c2 cells vs Con group” value in data set [4] (Hip 80 μM) is recorded as “a significant difference compared with the Con group”; in data set [4] (Hip 0.1~40 μM), “no statistical difference compared with the Con group”.
